Drawing on patent publication US20230065740A1, “CYCLIN-DEPENDENT KINASE INHIBITORS” (SPV THERAPEUTICS INC., priority 2018, published 2023), this text covers IC50 for 25 molecules.

A value given as a limit tells only on which side of the number the result lay.

One assay addresses CDK4-CYCLIND1 (Homo sapiens, UniProt P11802). Nature of the assay: Microfluidic LabChip kinase inhibition assay, CDK4-CyclinD1. The note with it: CDK4 IC50 (μM), Table 2; 200 μM ATP, 1 nM enzyme.
The next assay deals with T1, CDK6-CYCLIND3 (Homo sapiens, UniProt Q00534).
T1 construct: purchased Carna
T1 sequence (Q00534 whole entry): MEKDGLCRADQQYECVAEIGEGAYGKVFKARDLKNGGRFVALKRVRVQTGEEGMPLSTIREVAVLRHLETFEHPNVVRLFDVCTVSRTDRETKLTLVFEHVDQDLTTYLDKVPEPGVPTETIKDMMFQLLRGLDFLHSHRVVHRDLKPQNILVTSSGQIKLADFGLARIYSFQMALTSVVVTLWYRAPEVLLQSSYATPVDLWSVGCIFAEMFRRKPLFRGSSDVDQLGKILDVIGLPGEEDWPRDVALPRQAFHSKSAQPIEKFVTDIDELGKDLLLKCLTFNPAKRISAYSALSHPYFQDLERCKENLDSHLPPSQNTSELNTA
T1 sequence (P30281 whole entry partner): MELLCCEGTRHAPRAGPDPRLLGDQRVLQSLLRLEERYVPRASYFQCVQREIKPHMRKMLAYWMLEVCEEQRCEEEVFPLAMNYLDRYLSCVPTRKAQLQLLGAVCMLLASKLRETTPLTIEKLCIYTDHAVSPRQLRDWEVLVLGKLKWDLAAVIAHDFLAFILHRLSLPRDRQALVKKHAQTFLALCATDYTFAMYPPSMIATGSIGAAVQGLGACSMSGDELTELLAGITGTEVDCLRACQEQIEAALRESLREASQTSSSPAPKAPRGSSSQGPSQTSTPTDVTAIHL
Nature of the assay: Microfluidic LabChip kinase inhibition assay, CDK6-CyclinD3. Type of assay: biochemical. The note with it: Table 2; 300 μM ATP, 2 nM enzyme; read-out: CDK6 IC50.

CDK4-CYCLIND1, sequence (P11802 whole entry): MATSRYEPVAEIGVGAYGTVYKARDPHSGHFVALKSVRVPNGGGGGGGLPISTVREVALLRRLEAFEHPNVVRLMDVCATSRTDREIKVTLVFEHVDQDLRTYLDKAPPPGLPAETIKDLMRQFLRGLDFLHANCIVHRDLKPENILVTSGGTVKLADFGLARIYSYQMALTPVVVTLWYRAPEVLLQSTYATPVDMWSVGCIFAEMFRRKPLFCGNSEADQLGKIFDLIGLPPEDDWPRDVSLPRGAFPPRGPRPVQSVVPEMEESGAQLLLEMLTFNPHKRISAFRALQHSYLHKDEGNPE
CDK4-CYCLIND1, sequence (P24385 whole entry partner): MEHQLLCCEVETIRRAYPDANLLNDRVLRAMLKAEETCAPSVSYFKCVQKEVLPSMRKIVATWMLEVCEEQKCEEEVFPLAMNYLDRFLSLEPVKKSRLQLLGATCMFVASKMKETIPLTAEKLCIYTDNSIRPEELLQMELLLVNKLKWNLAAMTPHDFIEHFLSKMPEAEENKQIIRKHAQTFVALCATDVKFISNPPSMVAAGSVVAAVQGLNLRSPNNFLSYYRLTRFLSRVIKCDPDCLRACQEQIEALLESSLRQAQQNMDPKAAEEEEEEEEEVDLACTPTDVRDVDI

Turning to `O=C1NCCC12Cc1cnc(Nc3cc(C(F)(F)F)c(N4CCNCC4)cn3)nc1N2C1CCCC1` (centres unmarked) [Compound C17, 7′-cyclopentyl-2′-((5-(piperazin-1-yl)-4-(trifluoromethyl)pyridin-2-yl)amino)-5′,7′-dihydrospiro[pyrrolidine-3,6′-pyrrolo[2,3-d]pyrimidin]-2-one], the results for the IC50 on CDK4-CYCLIND1 and on CDK6-CYCLIND3 were 18.8 µM and greater than 30 µM, respectively.

As for `CN1CCN(c2cnc(Nc3ncc4c(n3)N(C3CCCC3)C3(CCNC3=O)C4)cc2C(F)(F)F)CC1` (centres unmarked) [Compound C18, 7′-cyclopentyl-2′-((5-(4-methylpiperazin-1-yl)-4-(trifluoromethyl)pyridin-2-yl)amino)-5′,7′-dihydrospiro[pyrrolidine-3,6′-pyrrolo[2,3-d]pyrimidin]-2-one], the half-inhibitory concentration (IC50) against CDK4-CYCLIND1 and at CDK6-CYCLIND3 was greater than 30 µM each time.

As to `CN1CCC2(Cc3cnc(Nc4ccc(N5CCNCC5)cn4)nc3N2C2CCCC2)C1=O` (centres unmarked) [Compound C19, 7′-cyclopentyl-1-methyl-2′-((5-(piperazin-1-yl)pyridin-2-yl)amino)-5′,7′-dihydrospiro[pyrrolidine-3,6′-pyrrolo[2,3-d]pyrimidin]-2-one], the IC50 at CDK4-CYCLIND1 and at CDK6-CYCLIND3 was greater than 30 µM in each case.

Regarding `CN1CCN(c2ccc(Nc3ncc4c(n3)N(C3CCCC3)C3(CCN(C)C3=O)C4)nc2)CC1` (centres unmarked) [Compound C20, 7′-cyclopentyl-1-methyl-2′-((5-(4-methylpiperazin-1-yl)pyridin-2-yl)amino)-5′,7′-dihydrospiro[pyrrolidine-3,6′-pyrrolo[2,3-d]pyrimidin]-2-one], the 50% inhibitory concentration (IC50) at CDK4-CYCLIND1 and on CDK6-CYCLIND3 was greater than 30 µM each time.

As to `O=C1N(Cc2ccccc2)CCC12Cc1cnc(Nc3ccc(N4CCNCC4)cn3)nc1N2C1CCCC1` (centres unmarked) [Compound C21], the IC50 at CDK4-CYCLIND1 and at CDK6-CYCLIND3 was greater than 30 µM each time.

For `CN1CCN(c2ccc(Nc3ncc4c(n3)N(C3CCCC3)C3(CCN(Cc5ccccc5)C3=O)C4)nc2)CC1` (centres unmarked) [Compound C22, 1-benzyl-7′-cyclopentyl-2′-((5-(4-methylpiperazin-1-yl)pyridin-2-yl)amino)-5′,7′-dihydrospiro[pyrrolidine-3,6′-pyrrolo[2,3-d]pyrimidin]-2-one], the IC50 on CDK4-CYCLIND1 is 16.5 µM; at CDK6-CYCLIND3 it was greater than 30 µM.

As to `CC(C)N1CCN(c2ccc(Nc3ncc4c(n3)N(C3CCCC3)C3(CCN(Cc5ccccc5)C3=O)C4)nc2)CC1` (centres unmarked) [Compound C23, 1-benzyl-7′-cyclopentyl-2′-((5-(4-isopropylpiperazin-1-yl)pyridin-2-yl)amino)-5′,7′-dihydrospiro[pyrrolidine-3,6′-pyrrolo[2,3-d]pyrimidin]-2-one], the concentration for half-maximal inhibition (IC50) against CDK4-CYCLIND1 is 17.7 µM; at CDK6-CYCLIND3, greater than 30 µM.

`CN1CCN(c2ccc(Nc3ncc4c(n3)N(C3CCCC3)C3(CCN(Cc5ccccc5)C3=O)C4)cc2)CC1` (centres unmarked) [Compound C24, 1-benzyl-7′-cyclopentyl-2′-((4-(4-methylpiperazin-1-yl)phenyl)amino)-5′,7′-dihydrospiro[pyrrolidine-3,6′-pyrrolo[2,3-d]pyrimidin]-2-one]: the figures for the IC50 at CDK4-CYCLIND1 and on CDK6-CYCLIND3 were 12.3 µM and greater than 30 µM, respectively.

Consider `CN1CCCC2(Cc3cnc(Nc4ccc(N5CCNCC5)cn4)nc3N2C2CCCC2)C1=O` (centres unmarked) [Compound C25, 7′-cyclopentyl-1-methyl-2′-((5-(piperazin-1-yl)pyridin-2-yl)amino)-5′,7′-dihydrospiro[piperidine-3,6′-pyrrolo[2,3-d]pyrimidin]-2-one], for which the concentration for half-maximal inhibition (IC50) at CDK4-CYCLIND1 and on CDK6-CYCLIND3 was greater than 30 µM in each case.

`CN1CCN(c2ccc(Nc3ncc4c(n3)N(C3CCCC3)C3(CCCN(C)C3=O)C4)nc2)CC1` (centres unmarked) [Compound C26, 7′-cyclopentyl-1-methyl-2′-((5-(4-methylpiperazin-1-yl)pyridin-2-yl)amino)-5′,7′-dihydrospiro[piperidine-3,6′-pyrrolo[2,3-d]pyrimidin]-2-one]: the half-inhibitory concentration (IC50) on CDK4-CYCLIND1 and at CDK6-CYCLIND3 was greater than 30 µM throughout.

As for `O=C1N(Cc2ccccc2)CCCC12Cc1cnc(Nc3ccc(N4CCNCC4)cn3)nc1N2C1CCCC1` (centres unmarked) [Compound C27, 1-benzyl-7′-cyclopentyl-2′-((5-(piperazin-1-yl)pyridin-2-yl)amino)-5′,7′-dihydrospiro[piperidine-3,6′-pyrrolo[2,3-d]pyrimidin]-2-one], the IC50 against CDK4-CYCLIND1 and on CDK6-CYCLIND3 was greater than 30 µM throughout.

`CN1CCN(c2ccc(Nc3ncc4c(n3)N(C3CCCC3)C3(CCCN(Cc5ccccc5)C3=O)C4)nc2)CC1` (centres unmarked) [Compound C28, 1-benzyl-7′-cyclopentyl-2′-((5-(4-methylpiperazin-1-yl)pyridin-2-yl)amino)-5′,7′-dihydrospiro[piperidine-3,6′-pyrrolo[2,3-d]pyrimidin]-2-one]: the 50% inhibitory concentration (IC50) against CDK4-CYCLIND1 and at CDK6-CYCLIND3 was greater than 30 µM throughout.

As for `COc1ccc(CN2CCC3(Cc4cnc(Nc5ccc(N6CCNCC6)cn5)nc4N3C3CCCC3)C2=O)cc1` (centres unmarked) [Compound C29, 7′-cyclopentyl-1-(4-methoxybenzyl)-2′-((5-(piperazin-1-yl)pyridin-2-yl)amino)-5′,7′-dihydrospiro[pyrrolidine-3,6′-pyrrolo[2,3-d]pyrimidin]-2-one], the half-inhibitory concentration (IC50) is 7.78 µM against CDK4-CYCLIND1 and greater than 30 µM on CDK6-CYCLIND3.

As to `COc1ccc(CN2CCC3(Cc4cnc(Nc5ccc(N6CCN(C)CC6)cn5)nc4N3C3CCCC3)C2=O)cc1` (centres unmarked) [Compound C30, 7′-cyclopentyl-1-(4-methoxybenzyl)-2′-((5-(4-methylpiperazin-1-yl)pyridin-2-yl)amino)-5′,7′-dihydrospiro[pyrrolidine-3,6′-pyrrolo[2,3-d]pyrimidin]-2-one], the concentration for half-maximal inhibition (IC50) against CDK4-CYCLIND1 is 8.21 µM; on CDK6-CYCLIND3 it was greater than 30 µM.

For the molecule `COc1ccc(CN2CCC3(Cc4cnc(Nc5ccc(N6CCN(C(C)C)CC6)cn5)nc4N3C3CCCC3)C2=O)cc1` (centres unmarked) [Compound C31, 7′-cyclopentyl-2′-((5-(4-isopropylpiperazin-1-yl)pyridin-2-yl)amino)-1-(4-methoxybenzyl)-5′,7′-dihydrospiro[pyrrolidine-3,6′-pyrrolo[2,3-d]pyrimidin]-2-one], the half-maximal inhibitory concentration (IC50) was 7.28 µM at CDK4-CYCLIND1 and greater than 30 µM on CDK6-CYCLIND3.

Turning to `COc1ccc(CN2CCC3(Cc4cnc(Nc5ccc(OCCN(C)C)cn5)nc4N3C3CCCC3)C2=O)cc1` (centres unmarked) [Compound C32, 7′-cyclopentyl-2′-((5-(2-(dimethylamino)ethoxy)pyridin-2-yl)amino)-1-(4-methoxybenzyl)-5′,7′-dihydrospiro[pyrrolidine-3,6′-pyrrolo[2,3-d]pyrimidin]-2-one], the concentration for half-maximal inhibition (IC50) against CDK4-CYCLIND1 was 10.5 µM; on CDK6-CYCLIND3 it was greater than 30 µM.

As for `O=C1NCCC12Cc1cnc(Nc3ccc(N4CCNCC4)cn3)nc1N2C1CCCC1` (centres unmarked) [Compound C33, 7′-cyclopentyl-2′-((5-(piperazin-1-yl)pyridin-2-yl)amino)-5′,7′-dihydrospiro[pyrrolidine-3,6′-pyrrolo[2,3-d]pyrimidin]-2-one], the values for the IC50 at CDK4-CYCLIND1 and at CDK6-CYCLIND3 were 0.694 µM and 2.08 µM, respectively.

As to `CN1CCN(c2ccc(Nc3ncc4c(n3)N(C3CCCC3)C3(CCNC3=O)C4)nc2)CC1` (centres unmarked) [Compound C34, 7′-cyclopentyl-2′-((5-(4-methylpiperazin-1-yl)pyridin-2-yl)amino)-5′,7′-dihydrospiro[pyrrolidine-3,6′-pyrrolo[2,3-d]pyrimidin]-2-one], the IC50 came out at 1.16 µM at CDK4-CYCLIND1 and 3.7 µM on CDK6-CYCLIND3.

`O=C1NCCCC12Cc1cnc(Nc3ccc(N4CCNCC4)cn3)nc1N2C1CCCC1` (centres unmarked) [Compound C35, 7′-cyclopentyl-2′-((5-(piperazin-1-yl)pyridin-2-yl)amino)-5′,7′-dihydrospiro[piperidine-3,6′-pyrrolo[2,3-d]pyrimidin]-2-one]: the IC50 against CDK4-CYCLIND1 was 19.6 µM; on CDK6-CYCLIND3 it was greater than 30 µM.

Turning to `CN1CCN(c2ccc(Nc3ncc4c(n3)N(C3CCCC3)C3(CCCNC3=O)C4)nc2)CC1` (centres unmarked) [Compound C36, 7′-cyclopentyl-2′-((5-(4-methylpiperazin-1-yl)pyridin-2-yl)amino)-5′,7′-dihydrospiro[piperidine-3,6′-pyrrolo[2,3-d]pyrimidin]-2-one], the results for the half-maximal inhibitory concentration (IC50) at CDK4-CYCLIND1 and on CDK6-CYCLIND3 were 29.3 µM and greater than 30 µM, respectively.

Regarding `CC(C)N1CCN(c2ccc(Nc3ncc4c(n3)N(C3CCCC3)C3(CCCNC3=O)C4)nc2)CC1` (centres unmarked) [Compound C37, 7′-cyclopentyl-2′-((5-(4-isopropylpiperazin-1-yl)pyridin-2-yl)amino)-5′,7′-dihydrospiro[piperidine-3,6′-pyrrolo[2,3-d]pyrimidin]-2-one], the half-maximal inhibitory concentration (IC50) against CDK4-CYCLIND1 and on CDK6-CYCLIND3 was greater than 30 µM each time.

`CC(C)N1CCN(c2ccc(Nc3ncc4c(n3)N(C3CCCC3)C3(CCNC3=O)C4)nc2)CC1` (centres unmarked) [Compound C38, 7′-cyclopentyl-2′-((5-(4-isopropylpiperazin-1-yl)pyridin-2-yl)amino)-5′,7′-dihydrospiro[pyrrolidine-3,6′-pyrrolo[2,3-d]pyrimidin]-2-one]: the results for the half-inhibitory concentration (IC50) against CDK4-CYCLIND1 and at CDK6-CYCLIND3 were 0.631 µM and 2.99 µM, respectively.

As for `CN1CCN(c2ccc(Nc3ncc4c(n3)N(C3CCCC3)C3(CCN(Cc5ccccc5)C3=O)C4)cc2F)CC1` (centres unmarked) [Compound C39, 1-benzyl-7′-cyclopentyl-2′-((3-fluoro-4-(4-methylpiperazin-1-yl)phenyl)amino)-5′,7′-dihydrospiro[pyrrolidine-3,6′-pyrrolo[2,3-d]pyrimidin]-2-one], the values for the IC50 against CDK4-CYCLIND1 and at CDK6-CYCLIND3 were 0.53 µM and 2.55 µM, respectively.

As for `CN1CCN(c2ccc(Nc3ncc4c(n3)N(C3CCCC3)C3(CCCN(Cc5ccccc5)C3=O)C4)cc2F)CC1` (centres unmarked) [Compound C40, 1-benzyl-7′-cyclopentyl-2′-((3-fluoro-4-(4-methylpiperazin-1-yl)phenyl)amino)-5′,7′-dihydrospiro[piperidine-3,6′-pyrrolo[2,3-d]pyrimidin]-2-one], the IC50 on CDK4-CYCLIND1 was found to be 2.96 µM; at CDK6-CYCLIND3, 10.7 µM.

As to `CN1CCN(c2ccc(Nc3ncc4c(n3)N(C3CCCC3)C3(CCN(Cc5ccccc5)C3=O)C4)c(F)c2)CC1` (centres unmarked) [Compound C41, 1-benzyl-7′-cyclopentyl-2′-((2-fluoro-4-(4-methylpiperazin-1-yl)phenyl)amino)-5′,7′-dihydrospiro[pyrrolidine-3,6′-pyrrolo[2,3-d]pyrimidin]-2-one], the 50% inhibitory concentration (IC50) against CDK4-CYCLIND1 came out at 5.98 µM; on CDK6-CYCLIND3, 12.8 µM.
